{
  "source": "paper PMC4445981",
  "about": "“The glutamate transport inhibitor DL-Threo-β-Benzyloxyaspartic acid (DL-TBOA) differentially affects SN38- and oxaliplatin-induced death of drug-resistant colorectal cancer cells” (BMC Cancer, 2015)",
  "format_in_all_cases": "cell-based, human",
  "key": {"[1]": {"test_system": "[3H]-D-Asp uptake (glutamate transporter activity) in LoVo-PAR cells", "experiment": "[3H]-D-Asp uptake assay, LoVo-PAR", "details": "LoVo-PAR, 100 nM [3H]-D-Asp, 6 min, 37 °C", "experimental": "We therefore next determined glutamate transporter activity (as uptake of the substrate [^3H]-D-Asp following a 6-min incubation in buffer supplemented with a tracer concentration of 100 nM [^3H]-D-Asp). […] To determine which transporter(s) was responsible for the [^3H]-D-Asp uptake, we assessed the effect of DL-TBOA, a nonselective inhibitor of EAATs, and UCPH-101, a specific SLC1A3 inhibitor [16, 28, 29]. […] Basal [^3H]-D-Asp uptake was decreased by about 60 % in SN38-resistant compared to parental HCT116 cells, whereas that in SN38-resistant LoVo cells was nearly tripled compared to parental LoVo cells.\nThe [^3H]-D-Asp uptake assay was performed essentially as in [30]. Briefly, cells were split into poly-D-lysine-coated white 96-well plates (PerkinElmer). A similar number of cells were seeded for HCT116 parental, HCT116-SN38 and HCT116-Oxa cell lines (7 × 10^4 cells/well) and LoVo parental, Lovo-SN38 and Lovo-Oxa cell lines (6 × 10^4 cells/well). 16–24 h later, culture medium was aspirated, and cells were washed once with 100 μl assay buffer (Hank’s Buffered Saline Solution supplemented with 20 mM HEPES, 1 mM CaCl2 and 1 mM MgCl2, pH 7.4). 50 μl assay buffer supplemented with 100 nM [^3H]-D-Asp and test compounds as indicated was added, and the plate was incubated at 37 °C for 6 min. Non-specific [^3H]-D-Asp uptake was determined in wells with 3 mM L-glutamate. The assay mixture was quickly removed, and wells were washed with 2 × 100 μl ice-cold assay buffer, followed by 150 μl Microscint™20 scintillation fluid (PerkinElmer). The plate was shaken for 1 h and counted in a Wallac 1450 MicroBeta Trilux scintillation counter (GMI, Ramsey, MN)."}, "[2]": {"test_system": "PARP-1 cleavage", "experiment": "PARP-1 cleavage by Western blotting", "details": "DL-TBOA; HCT116 and LoVo cells", "experimental": "Cells were grown to a confluence of 60-80 % and treated with chemotherapy, siRNA- or plasmid transfection as indicated. Cells were washed once in PBS, lysed in lysis buffer (1 % SDS, 0.1 M Tris pH 7.5, and 1 mM Na3VO4), sonicated, and protein content determined (DC assay, BioRad). Lysates were mixed 2:1with NuPage LDS sample buffer (Invitrogen). SDS-PAGE was carried out in NOVEX chambers with NuPAGE 10 % Bis-Tris gels under reducing and denaturing conditions, using BenchMark protein ladder (Invitrogen), and 15 μg protein per lane. Proteins were transferred to PVDF membranes, which were Ponceau S stained, blocked for 1 h at 37 °C in 5 % nonfat dry milk in TBST (0.01 M Tris/HCl, 0.15 M NaCl, 0.1 % Tween 20, pH 7.4), incubated overnight at 4 °C with primary antibodies diluted in blocking buffer, washed in TBST, incubated with secondary antibodies for 1 h, washed in TBST, and developed using BCIP/NBT (KPL). Bands were scanned and quantified using UN-SCAN-IT (Silk Scientific).\nSupplementary file 12885_2015_1405_MOESM3_ESM.tiff: Additional file 3: Figure S3. […] Equal amounts of protein per lane were separated by SDS-PAGE and the protein levels of p21, and PARP-1 (full-length and cleaved, the latter indicated by arrowheads) were determined by Western blotting. […] Bottom: Densitometric quantifications based on 3 independent experiments per condition. […]"}, "[3]": {"test_system": "parental LoVo cells", "experiment": "MTT viability assay, parental LoVo cells", "details": "350 μM DL-TBOA, 48 h", "experimental": "Fig. 2 DL-TBOA augments SN38-induced death in SN38-resistant cells, but protects oxaliplatin-resistant cells from oxaliplatin-induced death. Parental and drug-resistant HCT116 and LoVo cell lines seeded in 96-well dishes were exposed to SN38 (0.1 or 0.8 μM) or oxaliplatin (0.8 or 20 μM), alone or in combination with 70 or 350 μM DL-TBOA as indicated, for 48 h. Viability was assessed by MTT assay. a-b Parental HCT116 cells, (c) SN38 resistant HCT116 cells, (d) Oxaliplatin-resistant HCT116 cells, (e-f) Parental LoVo cells, (g) SN38 resistant LoVo cells, (h) Oxaliplatin-resistant LoVo cells. Data are means with S.E.M. error bars of 3 independent experiments. *) p < 0.05, **) p < 0.01, ***) p < 0.001 compared to the control group without drug or TBOA treatment; #) p < 0.05 compared to controls without TBOA treatment. One-way ANOVA followed by Dunnett post-test\nCells were seeded at appropriate density (LoVo 10,000, and HCT116 5000 cells /100 μl) in growth medium in 96-well plates. Next day, cells were treated with inhibitors and/or chemotherapy in a total volume of 200 μl in growth medium and incubated for 48 h at 37 °C, 5 % CO2. […] Absorbance was measured in an ELISA plate reader (Thermo Scientific MultiScan FC) at 550 nm. Data were background subtracted and % viability relative to controls calculated."}},
  "data": [
    {"molecule": "N[C@H](C(=O)O)[C@H](OCc1ccccc1)C(=O)O", "note": "(racemic) [TBOA, DL-Threo-β-Benzyloxyaspartic acid]", "values": [
      {"measurement": "pIC50 ± S.E.M., [3H]-D-Asp uptake", "setting": "[1]", "value": "5.84 ± 0.03"},
      {"measurement": "IC50", "setting": "[1]; read-out: IC50, [3H]-D-Asp uptake", "value": 1.4, "unit": "µM"},
      {"measurement": "effect on cellular level of cleaved PARP-1", "setting": "[2]", "value": "did not significantly alter"},
      {"measurement": "effect on loss of viability induced by 0.8 μM oxaliplatin", "setting": "[3]", "value": "essentially abolished the loss of viability"}
    ]}
  ]
}
